Results reported in patent US7880007B2, “Bicyclic substituted phenyl piperidine modulators of muscarinic receptors” (Vertex Pharmaceuticals Incorporated, priority 2004, dated 2011).

Experiments:
Assay type in all cases: cell-based
M2 muscarinic receptor = molecular target: T1, M2 muscarinic receptor (Homo sapiens, UniProt P08172); assay: Functional mobilization of intracellular calcium (FLIPR), M2-CHO cells; details: for Emax: 100% efficacy is the maximum response obtained with the Carbachol control; for M2 Activity: M2-CHO cells, calcium mobilization (FLIPR)
T1 construct: expressed in transfected cells; host or cells: CHO (M2-CHO)
T1 sequence (P08172 1-466): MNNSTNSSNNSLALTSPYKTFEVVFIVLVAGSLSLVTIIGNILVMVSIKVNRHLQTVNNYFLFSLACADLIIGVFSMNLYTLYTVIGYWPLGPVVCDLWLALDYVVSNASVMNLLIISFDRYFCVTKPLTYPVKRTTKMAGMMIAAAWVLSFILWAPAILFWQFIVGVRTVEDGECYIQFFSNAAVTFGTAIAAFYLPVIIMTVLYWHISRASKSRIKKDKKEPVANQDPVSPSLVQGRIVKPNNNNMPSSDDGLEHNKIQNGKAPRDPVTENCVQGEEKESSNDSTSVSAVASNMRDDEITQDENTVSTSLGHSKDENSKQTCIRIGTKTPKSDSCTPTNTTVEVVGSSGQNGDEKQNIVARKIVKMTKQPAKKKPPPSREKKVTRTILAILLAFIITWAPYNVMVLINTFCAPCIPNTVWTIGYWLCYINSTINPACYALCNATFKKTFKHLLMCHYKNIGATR
Outline: (§1)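 FLIPR fluorescence (ex 488, em 540 nm) recorded 60 sec after compound addition to dye-loaded CHO cells. Agonist mode: compound alone. Antagonist mode: 15 min compound pre-incubation, then carbachol at EC80, or co-application. Efficacy expressed as % of maximal carbachol response.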

M1 muscarinic receptor = molecular target: T2, M1 muscarinic receptor (Homo sapiens, UniProt P11229); assay: Functional mobilization of intracellular calcium (FLIPR), M1-CHO cells; details: for Emax: 100% efficacy is the maximum response obtained with the Carbachol control; for M1 Activity: M1-CHO cells, calcium mobilization (FLIPR)
T2 construct: expressed in transfected cells; host or cells: CHO (M1-CHO)
T2 sequence (P11229 1-460): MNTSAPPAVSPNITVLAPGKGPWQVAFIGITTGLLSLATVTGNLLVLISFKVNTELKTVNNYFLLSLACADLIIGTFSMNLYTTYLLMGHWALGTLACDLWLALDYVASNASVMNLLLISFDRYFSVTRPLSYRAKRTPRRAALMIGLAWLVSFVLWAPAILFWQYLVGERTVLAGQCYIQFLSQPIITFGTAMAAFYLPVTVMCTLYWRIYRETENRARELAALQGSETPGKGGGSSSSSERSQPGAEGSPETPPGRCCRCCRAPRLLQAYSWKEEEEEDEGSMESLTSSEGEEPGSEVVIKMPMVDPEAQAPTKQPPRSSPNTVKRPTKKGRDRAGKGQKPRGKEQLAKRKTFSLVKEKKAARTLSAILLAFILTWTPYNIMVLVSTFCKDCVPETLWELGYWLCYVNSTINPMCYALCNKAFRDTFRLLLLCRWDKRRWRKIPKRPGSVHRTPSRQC
Outline: as §1

M4 muscarinic receptor = molecular target: T3, M4 muscarinic receptor (Homo sapiens, UniProt P08173); assay: Functional mobilization of intracellular calcium (FLIPR), M4-CHO cells; details: for Emax: 100% efficacy is the maximum response obtained with the Carbachol control; for M4 Activity: M4-CHO cells, calcium mobilization (FLIPR)
T3 construct: expressed in transfected cells; host or cells: CHO (M4-CHO)
T3 sequence (P08173 1-479): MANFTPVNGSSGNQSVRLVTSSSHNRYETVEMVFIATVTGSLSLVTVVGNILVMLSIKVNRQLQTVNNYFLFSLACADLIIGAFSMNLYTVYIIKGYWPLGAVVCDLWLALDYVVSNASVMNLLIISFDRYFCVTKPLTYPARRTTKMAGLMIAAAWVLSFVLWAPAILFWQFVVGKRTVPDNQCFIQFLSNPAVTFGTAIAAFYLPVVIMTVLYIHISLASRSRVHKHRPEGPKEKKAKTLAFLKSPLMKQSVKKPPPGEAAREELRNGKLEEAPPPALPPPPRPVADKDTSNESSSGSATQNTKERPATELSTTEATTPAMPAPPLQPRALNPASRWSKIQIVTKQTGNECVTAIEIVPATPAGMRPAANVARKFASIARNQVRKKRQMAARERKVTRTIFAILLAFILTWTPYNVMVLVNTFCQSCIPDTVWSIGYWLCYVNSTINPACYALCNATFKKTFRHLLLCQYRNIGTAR
Outline: as §1

M3 muscarinic receptor = molecular target: T4, M3 muscarinic receptor (Homo sapiens, UniProt P20309); assay: Functional mobilization of intracellular calcium (FLIPR), M3-CHO cells; details: for Emax: 100% efficacy is the maximum response obtained with the Carbachol control; for M3 Activity: M3-CHO cells, calcium mobilization (FLIPR)
T4 construct: expressed in transfected cells; host or cells: CHO (M3-CHO)
Outline: as §1

T4 sequence (P20309 whole entry): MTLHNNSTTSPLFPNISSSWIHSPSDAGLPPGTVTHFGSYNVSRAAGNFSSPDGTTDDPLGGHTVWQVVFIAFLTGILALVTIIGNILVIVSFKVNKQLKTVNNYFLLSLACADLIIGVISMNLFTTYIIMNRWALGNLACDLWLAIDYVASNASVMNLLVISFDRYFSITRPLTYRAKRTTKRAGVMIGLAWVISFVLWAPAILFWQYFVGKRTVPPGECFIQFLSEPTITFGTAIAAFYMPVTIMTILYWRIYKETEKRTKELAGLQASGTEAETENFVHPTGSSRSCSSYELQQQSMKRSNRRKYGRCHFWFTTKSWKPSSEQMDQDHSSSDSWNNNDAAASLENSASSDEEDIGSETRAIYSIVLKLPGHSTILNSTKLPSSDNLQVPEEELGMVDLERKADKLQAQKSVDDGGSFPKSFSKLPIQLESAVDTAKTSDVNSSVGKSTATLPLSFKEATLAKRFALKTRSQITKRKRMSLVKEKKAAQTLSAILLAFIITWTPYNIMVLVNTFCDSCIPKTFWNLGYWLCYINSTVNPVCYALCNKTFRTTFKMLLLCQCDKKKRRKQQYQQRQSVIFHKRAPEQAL

With COc1ccc(Cl)cc1C1(F)CCN(CC2CCOCC2)CC1 [Compound 418] the Emax (M2 muscarinic receptor) was under 25%, the “M2 Activity” value (M2 muscarinic receptor) was “+ (activity was measured to be greater than 5.0 μM)” and the Emax (M1 muscarinic receptor) was under 25%. The “M1 Activity” value (M1 muscarinic receptor) was “++ (activity was measured to be from 1.0 μM to 5.0 μM)”, the Emax (M4 muscarinic receptor) was 25 to 100% and the “M4 Activity” value (M4 muscarinic receptor) was “++ (activity was measured to be from 1.0 μM to 5.0 μM)”. The Emax (M3 muscarinic receptor) was under 25% and the “M3 Activity” value (M3 muscarinic receptor) was “+ (activity was measured to be greater than 5.0 μM)”.
In the case of COc1ccccc1-c1ccccc1C1CCN([C@H]2C[C@H]3CC[C@H]2C3)CC1 [Compound 420], the Emax (M2 muscarinic receptor) is reported as under 25%, the “M2 Activity” value (M2 muscarinic receptor) is reported as “+ (activity was measured to be greater than 5.0 μM)” and the Emax (M1 muscarinic receptor) is reported as 25 to 100%. The “M1 Activity” value (M1 muscarinic receptor) was “+ (activity was measured to be greater than 5.0 μM)”, the Emax (M4 muscarinic receptor) was 25 to 100% and the “M4 Activity” value (M4 muscarinic receptor) was “++ (activity was measured to be from 1.0 μM to 5.0 μM)”. The Emax (M3 muscarinic receptor) was under 25% and the “M3 Activity” value (M3 muscarinic receptor) was “+ (activity was measured to be greater than 5.0 μM)”.
For COc1ccccc1C(=O)COc1ccccc1C1CCN([C@H]2C[C@H]3CC[C@H]2C3)CC1 [Compound 422], the Emax (M2 muscarinic receptor) was 25 to 100%, the “M2 Activity” value (M2 muscarinic receptor) was “++ (activity was measured to be from 1.0 μM to 5.0 μM)” and the Emax (M1 muscarinic receptor) was 25 to 100%. The “M1 Activity” value (M1 muscarinic receptor) was “++ (activity was measured to be from 1.0 μM to 5.0 μM)”, the Emax (M4 muscarinic receptor) was 25 to 100% and the “M4 Activity” value (M4 muscarinic receptor) was “+++ (activity was measured to be less than 1.0 μM)”. The Emax (M3 muscarinic receptor) was under 25% and the “M3 Activity” value (M3 muscarinic receptor) was “+ (activity was measured to be greater than 5.0 μM)”.
For COc1ccc(-c2ccc(C)cc2)cc1C1CCN([C@H]2C[C@H]3CC[C@H]2C3)CC1 [Compound 423], the Emax (M2 muscarinic receptor) was under 25%, the “M2 Activity” value (M2 muscarinic receptor) was “+ (activity was measured to be greater than 5.0 μM)” and the Emax (M1 muscarinic receptor) was under 25%. For the same compound, the “M1 Activity” value (M1 muscarinic receptor) was “+ (activity was measured to be greater than 5.0 μM)”, the Emax (M4 muscarinic receptor) was 25 to 100% and the “M4 Activity” value (M4 muscarinic receptor) was “+ (activity was measured to be greater than 5.0 μM)”. For the same compound, the Emax (M3 muscarinic receptor) was under 25% and the “M3 Activity” value (M3 muscarinic receptor) was “+ (activity was measured to be greater than 5.0 μM)”.
For Cc1ccc(F)cc1C1CCN(CC2C[C@H]3CC[C@H]2C3)CC1 (stereo partly shown) [Compound 424], the Emax (M2 muscarinic receptor) was 25 to 100%, the “M2 Activity” value (M2 muscarinic receptor) was “++ (activity was measured to be from 1.0 μM to 5.0 μM)” and the Emax (M1 muscarinic receptor) was 25 to 100%. The “M1 Activity” value (M1 muscarinic receptor) was “++ (activity was measured to be from 1.0 μM to 5.0 μM)”, the Emax (M4 muscarinic receptor) was 25 to 100% and the “M4 Activity” value (M4 muscarinic receptor) was “+++ (activity was measured to be less than 1.0 μM)”. For the same compound, the Emax (M3 muscarinic receptor) was under 25% and the “M3 Activity” value (M3 muscarinic receptor) was “+ (activity was measured to be greater than 5.0 μM)”.
